Measurements reported in patent publication US10526327B2, “Histone demethylase inhibitors” (CELGENE QUANTICEL RESEARCH, INC., priority 2013, dated 2020).

Key:
KDM5A/B = experiment: In vitro cell-based assay: immuno-blot quantification of tri-methyl H3K4 in ZR-75-1 breast cancer cells; conditions: 72 hours, tri-methyl H3K4 level relative to GAPDH, percent of DMSO, read-out: Cellular IC50
Description: An assay to measure the degree of cellular inhibition of KDM5A and 5B was developed. This quantitative immuno-blotting assay measures the amount tri-methylated histone H3 at amino acid Lysine number 4, a specific substrate […] of the direct enzymatic activity of the histone demethylases KDM5A and KDM5B from extracts of the ZR-75-1 breast cancer cell line.
This assay is a fluorometric immunoassay for the quantification of tri-methyl H3K4 extracted from cells treated with test compound and is used as a measure of the cellular inhibition of KDM5A/B.
ZR-75-1 (PTEN null, ER+) breast cancer cells numbering 50,000 (ATCC) were seeded into each well of a 96-well tissue culture treated plate and then exposed to an 11 point dilution of test compound with final concentration ranges of test compound ranging from 1250 μM to 10 nM. Cells were left in the presence of test compound for 72 hours. Extracts were prepared containing all of the cellular histone material using detergent based lysis and sonication methods. These lysates were subsequently normalized for total protein content using a colorimetric bicinchonic acid assay (MicroBCA Pierce/Thermo Scientific). Normalized cell extracts were then subjected to typical immuno-blotting procedures using NuPage reagents (Life Technologies). Electrophoretically separated histones were then transferred and immobilized using polyvinylidene difluoride membrane (Immobilon-FL Millipore). The amount of tri-methylated lysine 4 of histone H3 was detected using an antibody specific to the tri-methylated state (Cell Signaling Technologies) and quantified on an infrared imager using a densitometry software package (Odyssey CLx, Image Studio, Li-Cor). This background subtracted densitometry value was reported as a ration of the GAPDH amount for that sample and then calculated as a percent of the DMSO treated sample. The software package XL-fit (IDBS) was then used to calculate a relative IC50 value for the dilution series of a given test compound according to the equation: fit=(D+((Vmax*(x^n))/((x^n)+(Km^n)))).

Jarid1A = molecular target: T1, Jarid1A (Homo sapiens, UniProt P29375); experiment: Jarid1A in vitro enzyme inhibition assay (TR-FRET); assay type: biochemical
T1 construct: purchased BPS Bioscience 50110
T1 sequence (P29375 1-1090): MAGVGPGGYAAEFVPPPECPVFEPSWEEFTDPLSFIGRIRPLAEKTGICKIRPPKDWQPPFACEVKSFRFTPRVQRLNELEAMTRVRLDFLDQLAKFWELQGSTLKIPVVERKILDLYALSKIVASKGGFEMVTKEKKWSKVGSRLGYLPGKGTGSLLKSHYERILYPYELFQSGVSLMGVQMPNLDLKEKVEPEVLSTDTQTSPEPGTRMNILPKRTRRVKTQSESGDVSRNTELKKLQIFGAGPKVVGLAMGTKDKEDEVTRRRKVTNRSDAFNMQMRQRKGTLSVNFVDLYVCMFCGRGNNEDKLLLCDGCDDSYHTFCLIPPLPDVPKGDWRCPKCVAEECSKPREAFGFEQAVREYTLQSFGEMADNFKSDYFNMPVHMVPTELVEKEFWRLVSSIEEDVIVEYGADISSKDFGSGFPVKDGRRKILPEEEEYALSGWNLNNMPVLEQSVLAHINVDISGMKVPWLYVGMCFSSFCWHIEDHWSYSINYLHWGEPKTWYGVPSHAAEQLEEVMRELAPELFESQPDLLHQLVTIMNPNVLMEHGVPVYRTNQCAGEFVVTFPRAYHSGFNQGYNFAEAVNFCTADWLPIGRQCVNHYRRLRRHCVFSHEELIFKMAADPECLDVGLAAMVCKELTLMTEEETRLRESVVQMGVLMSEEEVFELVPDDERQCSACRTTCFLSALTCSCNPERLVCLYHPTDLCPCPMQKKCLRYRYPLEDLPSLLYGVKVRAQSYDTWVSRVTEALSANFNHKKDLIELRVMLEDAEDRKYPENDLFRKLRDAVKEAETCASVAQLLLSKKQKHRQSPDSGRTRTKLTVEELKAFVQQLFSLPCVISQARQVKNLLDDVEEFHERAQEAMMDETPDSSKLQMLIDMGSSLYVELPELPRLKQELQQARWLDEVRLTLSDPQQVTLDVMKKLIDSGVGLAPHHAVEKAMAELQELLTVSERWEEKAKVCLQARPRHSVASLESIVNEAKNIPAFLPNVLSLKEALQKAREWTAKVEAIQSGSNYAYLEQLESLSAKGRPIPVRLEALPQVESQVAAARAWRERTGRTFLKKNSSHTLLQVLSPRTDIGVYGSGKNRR
Description: This assay determines the ability of a test compound to inhibit Jarid1A, Jarid1B, and JMJD2C demethylase activity. Baculovirus expressed Jarid1A (GenBank Accession #NM_001042603, AA1-1090) was purchased from BPS Bioscience (Cat#50110). Baculovirus expressed Jarid1B (GenBank Accession #NM_006618, AA 2-751) was purchased from BPS Bioscience (Cat #50121) or custom made by MolecularThroughput. Baculovirus expressed JMJD2C (GenBank Accession #BC143571, AA 2-372) was purchased from BPS Bioscience (Cat#50105).
The enzymatic assay of Jarid1A activity is based upon Time Resolved-Fluorescence Resonance Energy Transfer (TR-FRET) detection. The ability of test compounds to inhibit the activity of Jarid1A was determined in 384-well plate format under the following reaction conditions: 1 nM Jarid1A, 300 nM H3K4me3-biotin labeled peptide (Anaspec cat #64357), 2 μM alpha-ketoglutaric acid in assay buffer of 50 mM HEPES, pH7.3, 0.005% Brij35, 0.5 mM TCEP, 0.2 mg/ml BSA, 50 μM sodium L-ascorbate, and 2 μM ammonium iron(II) sulfate. Reaction product was determined quantitatively by TR-FRET after the addition of detection reagent Phycolink Streptavidin-allophycocyanin (Prozyme) and Europium-anti-mono-or di-methylated histone H3 lysine 4 (H3K4me1-2) antibody (PerkinElmer) in the presence of 5 mM EDTA in LANCE detection buffer (PerkinElmer) at a final concentration of 25 nM and 1 nM, respectively.
The assay reaction was initiated by the following: 2 μl of the mixture of 900 nM H3K4me3-biotin labeled peptide and 6 μM alpha-ketoglutaric acid with 2 μl of 11-point serial diluted inhibitor in 3% DMSO was added to each well of plate, followed by the addition of 2 μl of 3 nM Jarid1A to initiate the reaction. The reaction mixture was incubated at room temperature for 30 minutes, and terminated by the addition of 6 μl of 5 mM EDTA in LANCE detection buffer containing 50 nM Phycolink Streptavidin-allophycocyanin and 2 nM Europium-anti-H3K4me1-2 antibody. Plates were read by EnVisionMultilabel Reader in TR-FRET mode (excitation at 320 nm, emission at 615 nm and 665 nm) after 1 hour incubation at room temperature. A ratio was calculated (665/615) for each well and fitted to determine inhibition constant (IC50).

| SMILES | IC50 (KDM5A/B) | IC50 (Jarid1A) |
| --- | --- | --- |
| Oc1nc(OCc2ccccc2)nc2cnccc12 [Example 4, 2-phenylmethoxypyrido[3,4-d]pyrimidin-4-ol] | 1000 to 10000 nM | 100 to 1000 nM |
| Oc1nc(OCC2CCC2)nc2cnccc12 [Example 11, 2-(cyclobutylmethoxy)-3H-pyrido[3,4-d]pyrimidin-4-one] | > 10000 nM | 100 to 1000 nM |
| O=S(=O)(c1ccccc1)N1CCC(n2cc(Oc3nc(O)c4ccncc4n3)cn2)CC1 [Example 95, 2-[1-[1-(benzenesulfonyl)piperidin-4-yl]pyrazol-4-yl]oxypyrido[3,4-d]pyrimidin-4-ol] | – | ≤ 100 nM |
| Oc1nc(Oc2ccnc(N3CCNCC3)c2)nc2cnccc12 [Example 96, 2-(2-piperazin-1-ylpyridin-4-yl)oxypyrido[3,4-d]pyrimidin-4-ol] | – | ≤ 100 nM |
| Oc1nc(Oc2ccnc(N3CCOCC3)c2)nc2cnccc12 [Example 97, 2-(2-morpholin-4-ylpyridin-4-yl)oxypyrido[3,4-d]pyrimidin-4-ol] | – | ≤ 100 nM |
| Cn1cnc(-c2nccc3c(O)nc(OCC(C)(C)O)nc23)c1 [Example 98, 2-(2-hydroxy-2-methylpropoxy)-8-(1-methylimidazol-4-yl)pyrido[3,4-d]pyrimidin-4-ol] | – | 100 to 1000 nM |
| CC(c1ccccc1)n1cc(Oc2nc(O)c3ccncc3n2)cn1 (centres unmarked) [Example 99] | – | ≤ 100 nM |
| Cn1cnc(-c2nccc3c(O)nc(Oc4cnn(C5CCOCC5)c4)nc23)c1 [Example 100, 8-(1-methylimidazol-4-yl)-2-[1-(oxan-4-yl)pyrazol-4-yl]oxypyrido[3,4-d]pyrimidin-4-ol] | – | ≤ 100 nM |
| Cn1cnc(-c2nccc3c(O)nc(OCc4ccccc4)nc23)c1 [Example 101, 8-(1-methylimidazol-4-yl)-2-phenylmethoxypyrido[3,4-d]pyrimidin-4-ol] | – | ≤ 100 nM |
| Cn1cnc(-c2nccc3c(O)nc(OCC4CCOCC4)nc23)c1 [Example 102, 8-(1-methyl-1H-imidazol-4-yl)-2-(oxan-4-ylmethoxy)pyrido[3,4-d]pyrimidin-4-ol] | – | 100 to 1000 nM |
| Cn1cnc(-c2nccc3c(O)nc(OCC4CCOC4)nc23)c1 (centres unmarked) [Example 103, 8-(1-methyl-1H-imidazol-4-yl)-2-(oxolan-3-ylmethoxy)pyrido[3,4-d]pyrimidin-4-ol] | – | 100 to 1000 nM |
| Cn1cnc(-c2nccc3c(O)nc(OCc4cccc(F)c4)nc23)c1 [Example 104, 2-[(3-fluorophenyl)methoxy]-8-(1-methyl-1H-imidazol-4-yl)pyrido[3,4-d]pyrimidin-4-ol] | – | 100 to 1000 nM |
| Cn1cnc(-c2nccc3c(O)nc(OCc4ccccc4Cl)nc23)c1 [Example 105, 2-[(2-chlorophenyl)methoxy]-8-(1-methyl-1H-imidazol-4-yl)pyrido[3,4-d]pyrimidin-4-ol] | – | 1000 to 10000 nM |
| Cn1cnc(-c2nccc3c(O)nc(OCc4cccc(Cl)c4Cl)nc23)c1 [Example 106, 2-[(2,3-dichlorophenyl)methoxy]-8-(1-methyl-1H-imidazol-4-yl)pyrido[3,4-d]pyrimidin-4-ol] | – | 1000 to 10000 nM |

Next, values leading:

| IC50 (KDM5A/B) | IC50 (Jarid1A) | SMILES |
| --- | --- | --- |
| > 10000 nM | ≤ 100 nM | Oc1nc(OCC2CC2)nc2cnccc12 [Example 5, 2-(cyclopropylmethoxy)-3H-pyrido[3,4-d]pyrimidin-4-one] |
| > 10000 nM | ≤ 100 nM | CCCOc1nc(O)c2ccncc2n1 [Example 7, 2-propoxy-3H-pyrido[3,4-d]pyrimidin-4-one] |
| > 10000 nM | ≤ 100 nM | Oc1nc(OCCOc2ccccc2)nc2cnccc12 [Example 10, 2-(2-phenoxyethoxy)-3H-pyrido[3,4-d]pyrimidin-4-one] |
| > 10000 nM | ≤ 100 nM | Oc1nc(OCC(F)(F)F)nc2cnccc12 [Example 12, 2-(2,2,2-trifluoroethoxy)pyrido[3,4-d]pyrimidin-4-ol] |
| 1000 to 10000 nM | ≤ 100 nM | CC(=O)Nc1ccc(Oc2nc(O)c3ccncc3n2)cc1 [Example 35, N-[4-(4-hydroxypyrido[3,4-d]pyrimidin-2-yl)oxyphenyl]acetamide] |
| > 10000 nM | ≤ 100 nM | Oc1nc(Oc2ccc(F)c(F)c2)nc2cnccc12 [Example 37, 2-(3,4-difluorophenoxy)pyrido[3,4-d]pyrimidin-4-ol] |
| > 10000 nM | ≤ 100 nM | Oc1nc(Oc2cccc(F)c2)nc2cnccc12 [Example 40, 2-(3-fluorophenoxy)pyrido[3,4-d]pyrimidin-4-ol] |
| > 10000 nM | ≤ 100 nM | Oc1nc(Oc2cccc(Cl)c2)nc2cnccc12 [Example 41, 2-(3-chlorophenoxy)pyrido[3,4-d]pyrimidin-4-ol] |
| > 10000 nM | ≤ 100 nM | COc1cccc(Oc2nc(O)c3ccncc3n2)c1 [Example 44, 2-(3-methoxyphenoxy)pyrido[3,4-d]pyrimidin-4-ol] |
| > 10000 nM | ≤ 100 nM | CCOc1c(F)cc(Oc2nc(O)c3ccncc3n2)cc1F [Example 45, 2-(4-ethoxy-3,5-difluorophenoxy)pyrido[3,4-d]pyrimidin-4-ol] |
| > 10000 nM | ≤ 100 nM | Oc1nc(Oc2ccc(F)cc2)nc2cnccc12 [Example 47, 2-(4-fluorophenoxy)pyrido[3,4-d]pyrimidin-4-ol] |
| > 10000 nM | ≤ 100 nM | COc1ccc(Oc2nc(O)c3ccncc3n2)cc1 [Example 48, 2-(4-methoxyphenoxy)pyrido[3,4-d]pyrimidin-4-ol] |
| – | ≤ 100 nM | O=S(=O)(C1CC1)N1CCC(n2cc(Oc3nc(O)c4ccncc4n3)cn2)CC1 [Example 94, 2-[1-(1-cyclopropylsulfonylpiperidin-4-yl)pyrazol-4-yl]oxypyrido[3,4-d]pyrimidin-4-ol] |
